Measurements taken from patent US12275731B2, “Azaindole inhibitors of wild-type and mutant forms of LRRK2” (DANA-FARBER CANCER INSTITUTE, INC., priority 2018, dated 2025).

Tests used:
Experiment in all cases: KinomeScan profiling
Type in all cases: binding
[1] = target: PCTK2 (Homo sapiens, UniProt Q00537); details: PCTK2, 1 μM; read-out: % control
How it was run: (§1)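 At 1 μM in DMSO, compounds are run through a broad 468-member kinase panel. The luminescent read-out is normalised so that vehicle gives 100% and a positive control gives 0%; any kinase falling below 35% is treated as a target.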

[2] = target: T1, PIK3CA (Homo sapiens, UniProt P42336); details: read-out: % control
T1 construct: purchased KinomeScan® (panel service)
T1 sequence (P42336 whole entry): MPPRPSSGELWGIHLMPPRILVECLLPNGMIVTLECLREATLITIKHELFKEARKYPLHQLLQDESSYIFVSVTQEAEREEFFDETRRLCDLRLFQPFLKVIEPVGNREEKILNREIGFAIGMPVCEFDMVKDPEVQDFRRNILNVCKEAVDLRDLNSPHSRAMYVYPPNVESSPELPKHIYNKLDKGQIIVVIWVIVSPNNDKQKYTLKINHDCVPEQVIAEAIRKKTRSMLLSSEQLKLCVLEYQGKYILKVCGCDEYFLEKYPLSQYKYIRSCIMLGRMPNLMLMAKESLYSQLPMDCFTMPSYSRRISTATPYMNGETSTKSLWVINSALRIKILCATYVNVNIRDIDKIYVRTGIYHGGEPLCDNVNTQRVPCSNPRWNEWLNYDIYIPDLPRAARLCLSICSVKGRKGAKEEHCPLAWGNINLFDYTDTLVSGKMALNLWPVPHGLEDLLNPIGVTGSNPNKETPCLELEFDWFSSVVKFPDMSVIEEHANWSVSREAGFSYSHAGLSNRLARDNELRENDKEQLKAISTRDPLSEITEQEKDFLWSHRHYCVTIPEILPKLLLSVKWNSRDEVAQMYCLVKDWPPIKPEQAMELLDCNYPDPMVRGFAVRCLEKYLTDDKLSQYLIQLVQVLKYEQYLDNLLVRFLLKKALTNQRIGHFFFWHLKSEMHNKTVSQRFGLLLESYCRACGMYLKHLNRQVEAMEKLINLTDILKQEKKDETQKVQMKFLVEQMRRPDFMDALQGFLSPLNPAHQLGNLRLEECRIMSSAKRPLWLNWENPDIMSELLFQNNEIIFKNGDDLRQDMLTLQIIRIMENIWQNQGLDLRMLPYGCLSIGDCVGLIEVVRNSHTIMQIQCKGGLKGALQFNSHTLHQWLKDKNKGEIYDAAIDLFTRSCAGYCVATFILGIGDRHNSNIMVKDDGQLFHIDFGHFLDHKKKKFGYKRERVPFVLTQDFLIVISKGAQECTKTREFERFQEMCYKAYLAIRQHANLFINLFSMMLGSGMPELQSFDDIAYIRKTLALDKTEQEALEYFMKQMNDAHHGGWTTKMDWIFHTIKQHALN
How it was run: as §1

[3] = target: T2, EPHA3 (Homo sapiens, UniProt P29320); details: EPHA3, 1 μM; read-out: % control
T2 sequence (P29320 21-983): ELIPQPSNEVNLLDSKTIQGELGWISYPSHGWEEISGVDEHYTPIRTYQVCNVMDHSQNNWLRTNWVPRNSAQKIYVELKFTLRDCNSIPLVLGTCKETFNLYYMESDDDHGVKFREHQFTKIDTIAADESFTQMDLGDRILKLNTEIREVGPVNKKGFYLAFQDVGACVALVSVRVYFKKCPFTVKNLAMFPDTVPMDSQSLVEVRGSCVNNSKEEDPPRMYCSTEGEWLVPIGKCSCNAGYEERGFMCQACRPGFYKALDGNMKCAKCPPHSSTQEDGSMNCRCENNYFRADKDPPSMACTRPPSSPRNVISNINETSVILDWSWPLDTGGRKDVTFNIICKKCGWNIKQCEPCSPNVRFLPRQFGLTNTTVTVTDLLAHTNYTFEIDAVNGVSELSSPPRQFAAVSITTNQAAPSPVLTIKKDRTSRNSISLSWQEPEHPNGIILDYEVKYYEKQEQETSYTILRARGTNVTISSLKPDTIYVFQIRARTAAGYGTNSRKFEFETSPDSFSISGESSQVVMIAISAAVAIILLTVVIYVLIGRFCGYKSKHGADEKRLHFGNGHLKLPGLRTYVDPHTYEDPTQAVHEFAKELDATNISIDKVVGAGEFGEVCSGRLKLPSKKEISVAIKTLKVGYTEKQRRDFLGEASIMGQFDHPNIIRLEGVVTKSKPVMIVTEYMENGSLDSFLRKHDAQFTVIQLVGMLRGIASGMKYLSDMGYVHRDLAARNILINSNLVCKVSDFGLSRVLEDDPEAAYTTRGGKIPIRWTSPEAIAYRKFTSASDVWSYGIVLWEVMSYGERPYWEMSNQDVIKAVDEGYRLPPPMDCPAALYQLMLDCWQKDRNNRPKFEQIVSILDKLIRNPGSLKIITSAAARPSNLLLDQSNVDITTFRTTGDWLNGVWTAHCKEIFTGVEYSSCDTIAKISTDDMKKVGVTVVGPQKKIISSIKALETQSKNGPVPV
How it was run: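 Test agents were profiled at a single concentration of 1 μM (DMSO vehicle) on a near-complete set of 468 kinases. Signal is reported relative to vehicle (100%) and a fully displacing control (0%).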

[4] = target: T3, FLT3 (Homo sapiens, UniProt P36888); details: FLT3, 1 μM; read-out: % control
T3 sequence (P36888 27-993): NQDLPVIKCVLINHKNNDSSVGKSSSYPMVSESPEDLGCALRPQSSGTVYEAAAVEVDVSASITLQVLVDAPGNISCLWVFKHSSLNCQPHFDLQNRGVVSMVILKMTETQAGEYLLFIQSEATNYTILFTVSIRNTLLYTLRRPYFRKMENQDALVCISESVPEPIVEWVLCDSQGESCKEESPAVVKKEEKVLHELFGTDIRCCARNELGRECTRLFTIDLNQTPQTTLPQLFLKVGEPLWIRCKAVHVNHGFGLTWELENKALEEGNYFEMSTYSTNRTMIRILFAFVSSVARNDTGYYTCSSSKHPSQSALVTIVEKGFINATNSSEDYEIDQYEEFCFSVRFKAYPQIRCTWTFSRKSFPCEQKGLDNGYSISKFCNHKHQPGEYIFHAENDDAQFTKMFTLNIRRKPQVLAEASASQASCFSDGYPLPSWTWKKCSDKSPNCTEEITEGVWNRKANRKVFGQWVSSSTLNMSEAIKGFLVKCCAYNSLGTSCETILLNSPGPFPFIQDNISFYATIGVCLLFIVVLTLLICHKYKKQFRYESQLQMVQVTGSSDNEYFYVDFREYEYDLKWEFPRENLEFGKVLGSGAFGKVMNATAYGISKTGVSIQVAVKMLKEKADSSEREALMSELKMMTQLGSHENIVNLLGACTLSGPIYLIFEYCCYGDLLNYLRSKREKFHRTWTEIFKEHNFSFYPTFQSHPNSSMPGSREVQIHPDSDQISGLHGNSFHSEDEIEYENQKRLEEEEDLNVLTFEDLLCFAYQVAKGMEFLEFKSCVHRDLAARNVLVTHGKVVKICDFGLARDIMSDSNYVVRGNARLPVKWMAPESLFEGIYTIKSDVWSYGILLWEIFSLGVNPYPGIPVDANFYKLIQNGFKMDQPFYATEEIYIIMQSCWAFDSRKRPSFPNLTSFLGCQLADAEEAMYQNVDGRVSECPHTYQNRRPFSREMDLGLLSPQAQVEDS
How it was run: as §1

[5] = target: LTK (Homo sapiens, UniProt P29376); details: read-out: % control
Chain of LTK (P29376 17-864): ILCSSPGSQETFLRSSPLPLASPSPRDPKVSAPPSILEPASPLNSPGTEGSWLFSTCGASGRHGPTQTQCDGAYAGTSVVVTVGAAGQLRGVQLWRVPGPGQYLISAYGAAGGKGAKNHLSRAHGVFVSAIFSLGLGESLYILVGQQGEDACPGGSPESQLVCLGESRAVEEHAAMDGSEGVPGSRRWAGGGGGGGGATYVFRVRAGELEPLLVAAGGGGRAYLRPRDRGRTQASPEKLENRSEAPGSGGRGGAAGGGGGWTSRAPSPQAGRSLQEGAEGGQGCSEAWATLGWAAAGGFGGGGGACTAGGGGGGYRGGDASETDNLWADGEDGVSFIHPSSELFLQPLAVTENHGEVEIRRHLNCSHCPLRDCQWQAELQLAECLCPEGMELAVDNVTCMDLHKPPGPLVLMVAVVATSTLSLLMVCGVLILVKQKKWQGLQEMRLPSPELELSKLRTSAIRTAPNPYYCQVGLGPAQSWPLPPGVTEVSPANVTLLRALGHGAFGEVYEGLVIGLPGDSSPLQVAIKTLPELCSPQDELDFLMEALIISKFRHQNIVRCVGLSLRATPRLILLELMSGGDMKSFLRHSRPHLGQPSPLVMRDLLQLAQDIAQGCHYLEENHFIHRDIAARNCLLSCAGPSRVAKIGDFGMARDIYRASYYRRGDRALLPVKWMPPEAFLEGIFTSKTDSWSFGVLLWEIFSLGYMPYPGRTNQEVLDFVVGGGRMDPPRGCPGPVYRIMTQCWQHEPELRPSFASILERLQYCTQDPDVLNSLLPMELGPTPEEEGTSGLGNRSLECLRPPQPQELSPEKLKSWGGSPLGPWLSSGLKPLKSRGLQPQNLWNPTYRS
How it was run: as §1

[6] = target: EGFR(L858R) (Homo sapiens, UniProt P00533, L858R); details: read-out: % control
Chain of EGFR(L858R) (P00533 25-1210 L858R): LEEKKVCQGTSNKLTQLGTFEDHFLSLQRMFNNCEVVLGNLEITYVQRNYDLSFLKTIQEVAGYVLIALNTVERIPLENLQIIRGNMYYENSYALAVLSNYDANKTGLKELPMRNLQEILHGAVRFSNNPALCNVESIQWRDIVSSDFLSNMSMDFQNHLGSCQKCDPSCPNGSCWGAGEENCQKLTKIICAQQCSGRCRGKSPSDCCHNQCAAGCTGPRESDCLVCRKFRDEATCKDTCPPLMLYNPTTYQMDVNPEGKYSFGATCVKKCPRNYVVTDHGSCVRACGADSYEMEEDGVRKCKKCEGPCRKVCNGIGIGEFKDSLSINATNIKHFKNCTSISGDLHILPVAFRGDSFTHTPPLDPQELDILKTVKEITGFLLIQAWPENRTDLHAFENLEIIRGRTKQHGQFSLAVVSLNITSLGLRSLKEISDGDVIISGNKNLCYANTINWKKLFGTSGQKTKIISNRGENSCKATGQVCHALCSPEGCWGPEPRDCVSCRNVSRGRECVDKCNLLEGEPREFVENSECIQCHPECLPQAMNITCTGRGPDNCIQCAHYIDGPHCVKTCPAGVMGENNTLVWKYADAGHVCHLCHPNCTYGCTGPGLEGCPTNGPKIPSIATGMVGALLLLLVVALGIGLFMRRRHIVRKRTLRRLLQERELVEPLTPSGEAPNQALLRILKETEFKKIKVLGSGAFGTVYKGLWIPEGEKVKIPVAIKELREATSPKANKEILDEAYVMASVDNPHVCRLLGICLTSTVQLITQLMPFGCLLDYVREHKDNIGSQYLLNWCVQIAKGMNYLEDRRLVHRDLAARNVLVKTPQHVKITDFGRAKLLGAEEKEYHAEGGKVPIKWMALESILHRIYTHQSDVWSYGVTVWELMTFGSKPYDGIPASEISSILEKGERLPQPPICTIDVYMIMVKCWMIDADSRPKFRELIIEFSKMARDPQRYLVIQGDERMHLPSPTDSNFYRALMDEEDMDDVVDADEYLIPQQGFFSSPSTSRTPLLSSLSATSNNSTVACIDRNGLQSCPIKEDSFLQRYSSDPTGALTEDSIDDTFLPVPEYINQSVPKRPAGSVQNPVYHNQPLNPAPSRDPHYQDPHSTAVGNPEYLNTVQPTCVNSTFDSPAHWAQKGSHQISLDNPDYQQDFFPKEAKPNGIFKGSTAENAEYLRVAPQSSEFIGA
How it was run: as §1

[7] = target: MET(Y1235D) (Homo sapiens, UniProt P08581, Y1235D); details: read-out: % control
Chain of MET(Y1235D) (P08581 25-1390 Y1235D): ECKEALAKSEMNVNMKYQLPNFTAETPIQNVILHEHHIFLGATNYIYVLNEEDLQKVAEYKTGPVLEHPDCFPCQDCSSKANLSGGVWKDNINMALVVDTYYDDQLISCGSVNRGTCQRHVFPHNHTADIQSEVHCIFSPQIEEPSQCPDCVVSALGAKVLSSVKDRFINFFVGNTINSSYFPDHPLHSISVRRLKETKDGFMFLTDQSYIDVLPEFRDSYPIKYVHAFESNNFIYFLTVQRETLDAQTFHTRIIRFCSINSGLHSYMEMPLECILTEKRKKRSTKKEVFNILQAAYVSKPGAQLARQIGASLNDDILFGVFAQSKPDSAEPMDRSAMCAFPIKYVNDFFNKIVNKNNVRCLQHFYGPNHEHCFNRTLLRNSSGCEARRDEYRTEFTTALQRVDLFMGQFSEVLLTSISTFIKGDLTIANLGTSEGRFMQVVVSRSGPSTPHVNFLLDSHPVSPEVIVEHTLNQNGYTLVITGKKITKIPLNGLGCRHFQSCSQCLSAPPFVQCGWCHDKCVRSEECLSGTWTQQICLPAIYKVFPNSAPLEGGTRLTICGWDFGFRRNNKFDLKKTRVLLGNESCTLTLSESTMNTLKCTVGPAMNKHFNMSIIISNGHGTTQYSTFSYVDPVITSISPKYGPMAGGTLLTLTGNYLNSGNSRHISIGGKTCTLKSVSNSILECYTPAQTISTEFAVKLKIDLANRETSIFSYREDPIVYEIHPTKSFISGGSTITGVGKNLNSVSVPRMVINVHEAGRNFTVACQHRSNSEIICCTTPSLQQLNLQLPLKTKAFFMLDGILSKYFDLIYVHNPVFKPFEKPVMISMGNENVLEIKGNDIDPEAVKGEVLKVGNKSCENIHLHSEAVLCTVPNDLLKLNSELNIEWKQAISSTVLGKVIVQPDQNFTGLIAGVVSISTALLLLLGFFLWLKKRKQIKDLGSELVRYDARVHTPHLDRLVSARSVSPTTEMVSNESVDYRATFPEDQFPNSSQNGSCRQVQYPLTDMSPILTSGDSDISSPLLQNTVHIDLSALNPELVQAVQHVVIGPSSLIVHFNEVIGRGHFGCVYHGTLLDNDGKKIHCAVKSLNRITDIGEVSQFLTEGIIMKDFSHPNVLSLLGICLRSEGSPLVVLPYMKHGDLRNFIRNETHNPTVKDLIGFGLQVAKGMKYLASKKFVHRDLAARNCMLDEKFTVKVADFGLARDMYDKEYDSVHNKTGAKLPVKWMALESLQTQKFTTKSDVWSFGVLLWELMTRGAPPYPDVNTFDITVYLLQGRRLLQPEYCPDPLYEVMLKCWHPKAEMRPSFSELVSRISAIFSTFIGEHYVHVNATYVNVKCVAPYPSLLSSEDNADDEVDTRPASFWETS
How it was run: as §1

[8] = target: EGFR(L861Q) (Homo sapiens, UniProt P00533, L861Q); details: read-out: % control
How it was run: as §1

Chain of PCTK2 (Q00537 whole entry): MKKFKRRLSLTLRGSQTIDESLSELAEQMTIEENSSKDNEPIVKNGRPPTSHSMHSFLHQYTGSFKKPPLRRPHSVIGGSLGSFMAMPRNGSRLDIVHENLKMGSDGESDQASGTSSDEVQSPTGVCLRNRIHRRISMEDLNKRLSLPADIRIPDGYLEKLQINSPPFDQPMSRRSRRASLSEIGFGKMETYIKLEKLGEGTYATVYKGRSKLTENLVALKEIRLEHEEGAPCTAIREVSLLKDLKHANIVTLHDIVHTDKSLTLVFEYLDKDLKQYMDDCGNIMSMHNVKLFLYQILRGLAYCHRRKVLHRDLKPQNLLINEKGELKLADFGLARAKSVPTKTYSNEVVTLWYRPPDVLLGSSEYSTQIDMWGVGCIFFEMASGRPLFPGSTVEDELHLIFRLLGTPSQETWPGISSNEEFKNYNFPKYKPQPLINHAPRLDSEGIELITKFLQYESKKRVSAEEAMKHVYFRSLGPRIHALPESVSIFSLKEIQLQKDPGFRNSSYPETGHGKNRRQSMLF

**Q.** CNc1c(-c2cnn([C@H]3CCN(C(C)=O)C[C@@H]3F)c2)cnc2[nH]cc(Cl)c12 [Compound 77, 1-((3S,4S)-4-(4-(3-chloro-4-(methylamino)-1H-pyrrolo[2,3-b]pyridin-5-yl)-1H-pyrazol-1-yl)-3-fluoropiperidin-1-yl)ethan-1-one] was tested. Which remaining binding at 1 µM [1] did it give?
**A.** 100%

**Q.** And the remaining binding at 1 µM [2]?
**A.** 100%

**Q.** And the remaining binding at 1 µM [3]?
**A.** 90%

**Q.** And the remaining binding at 1 µM [4]?
**A.** 3.3%

**Q.** And the remaining binding at 1 µM [5]?
**A.** 75%

**Q.** And the remaining binding at 1 µM [6]?
**A.** 100%

**Q.** What about the remaining binding at 1 µM [7] of the same molecule?
**A.** 56%

**Q.** And the remaining binding at 1 µM [8]?
**A.** 96%

**Q.** For O=C(c1ccc(-c2cnc3[nH]cc(Cl)c3c2NC2CCCC2)cc1)N1CCC(N2CCOCC2)CC1 [Compound 101, (4-(3-chloro-4-(cyclopentylamino)-1H-pyrrolo[2,3-b]pyridin-5-yl)phenyl)(4-morpholinopiperidin-1-yl)methanone], which remaining binding at 1 µM [1] is on record?
**A.** 96%

**Q.** And the remaining binding at 1 µM [2]?
**A.** 99%

**Q.** And the remaining binding at 1 µM [3]?
**A.** 82%

**Q.** And the remaining binding at 1 µM [4]?
**A.** 4.9%

**Q.** What about the remaining binding at 1 µM [5] of the same molecule?
**A.** 72%

**Q.** And the remaining binding at 1 µM [6]?
**A.** 96%

**Q.** And the remaining binding at 1 µM [7]?
**A.** 30%

**Q.** What about the remaining binding at 1 µM [8] of the same molecule?
**A.** 89%

**Q.** How did the remaining binding at 1 µM [1] turn out when CNc1c(-c2ccc(C(=O)N3CCC(N4CCOCC4)CC3)cc2)cnc2[nH]cc(Cl)c12 [Compound 96, (4-(3-chloro-4-(methylamino)-1H-pyrrolo[2,3-b]pyridin-5-yl)phenyl)(4-morpholinopiperidin-1-yl)methanone] was run?
**A.** 97%

**Q.** And the remaining binding at 1 µM [2]?
**A.** 100%

**Q.** And the remaining binding at 1 µM [3]?
**A.** 100%

**Q.** What about the remaining binding at 1 µM [4] of the same molecule?
**A.** 6.7%

**Q.** And the remaining binding at 1 µM [5]?
**A.** 62%

**Q.** And the remaining binding at 1 µM [6]?
**A.** 100%

**Q.** What about the remaining binding at 1 µM [7] of the same molecule?
**A.** 83%

**Q.** And the remaining binding at 1 µM [8]?
**A.** 90%
